Reference: EPA's ToxValDB 9.5

Tested on: Rattus norvegicus
Conditions: oral
[1] = short-term, duration: 28 days, gavage, F, Sprague-Dawley
[2] = short-term, duration: 28 days, gavage, M, Sprague-Dawley
[3] = subchronic, gavage, Sprague-Dawley
[4] = subchronic, gavage, M, Sprague-Dawley, Deaths + Clinical Observation: Salivation Abnormal resp. noise Irregular respiration Loose stool DiarrheaSoiled fur, nasal/urogenital region…
[5] = short-term, duration: 28 days, gavage, M, Sprague-Dawley, Clinical Observation: Yellow-orange urine SalivationSpontaneous locomotion decrease, Respiratory rate decrease, Soft stool + Body Weight …
[6] = subchronic, gavage, M, Sprague-Dawley
[7] = short-term, duration: 28 days, gavage, F, Sprague-Dawley, Clinical Observation: Salivation1000 (transient) + Body Weight Changes: Weight gain decrease + Hematology: Hgb decrease, Hct decrease, RBC …
[8] = short-term, duration: 28 days, gavage, M, Sprague-Dawley, Clinical Observation: Salivation1000 (transient) + Body Weight Changes: Weight gain decrease + Hematology: Hgb decrease, Hct decrease, RBC …
[9] = short-term, duration: 28 days, gavage, M/F, Clinical Observation: Salivation Soft stool Mucous stool + Body Weight Changes: Weight gain decrease + Food Consumption: decrease + …

## O=C(Nc1ccccc1)c1cc2ccccc2cc1O [3-Hydroxy-2-naphthanilide]
[1]
  NOAEL: 1000 mg/kg-day
  NOEL: 1000 mg/kg-day
[2]
  NOAEL: 1000 mg/kg-day
  NOEL: 1000 mg/kg-day
[3]
  NOEL: 1000 mg/kg-day

## CC(C)(O)C1CCCCC1 [Cyclohexanemethanol, .alpha.,.alpha.-dimethyl-]
short-term, duration: 28 days, gavage, M/F, Clinical Observation: Salivation + Blood Chemistry: GLUC decrease, TP increase, CRN decrease, BIL increase, T-CHO increase + Absolute Organ …
  NOEL: < 8 mg/kg-day

## Nc1ccc(N)c2c1C(=O)c1c(N)ccc(N)c1C2=O [C.I. Disperse Blue 1]
subchronic, duration: 13 weeks, diet, M/F, Fischer 344, Deaths + Body Weight Changes: decrease + Histopathology: Kidneys-Calculi Urinary bladder a"Inflammation Urinary bladder a"Transitional …
  NOEL: 115 mg/kg-day

## COc1ccc(C[C@@H](C)NC[C@H](O)c2ccc(O)c(NC=O)c2)cc1.COc1ccc(C[C@@H](C)NC[C@H](O)c2ccc(O)c(NC=O)c2)cc1.O=C(O)/C=C/C(=O)O [Formoterol hemifumarate]
subchronic, duration: 35 days, gavage, F, Sprague-Dawley, Deaths + Clinical Observation: Tachycardia Tachypnea Salivation + Body Weight Changes: Body weight gain decrease + Blood Chemistry: GLUC …
  NOEL: 0.3 mg/kg-day
subchronic, duration: 35 days, gavage, M, Sprague-Dawley, Deaths + Clinical Observation: Tachycardia Tachypnea Salivation + Body Weight Changes: Body weight gain decrease + Blood Chemistry: GLUC …
  NOEL: 0.03 mg/kg-day

## N#CSCSC#N [Methylene bis(thiocyanate)]
subchronic, gavage, F, Fischer 344, Deaths + Clinical Observation: Abnormal respiratory sounds Reddish tear Hunched posture Dyspnea + Hematology: Hct decrease, Hgb decrease, …
  NOEL: 2 mg/kg-day
subchronic, gavage, M, Fischer 344, Deaths + Clinical Observation: Abnormal respiratory sounds Reddish tear Hunched posture Dyspnea + Hematology: Hct decrease, Hgb decrease, …
  NOEL: 1 mg/kg-day

## CCOCCc1ccc(OCC(OC)OC)c(C)c1C
short-term, duration: 28 days, gavage, M/F, Clinical Observation: Salivation Locomotor activity decrease + Blood Chemistry: GOT increase, GPT increase, gamma-GTP increase, T-CHO …
  NOEL: < 40 mg/kg-day

## CCCCCCC[CH2][Sn]([CH2]CCCCCCC)([S]CC(=O)OCC(CC)CCCC)[S]CC(=O)OCC(CC)CCCC (configuration not stated) [Dioctyltinbis(2-ethylhexyl mercaptoacetate)]
subchronic, duration: 90 days, diet, M/F, Wistar, Deaths + Body Weight Changes: Mean body weight decrease + Food Consumption: decrease + Urinalysis: SG decrease, GOT increase + Hematology: …
  NOAEL: 0.96 mg/kg-day

## CCCCCCCCCCCCCCCCCCCCCCN(C)C [1-Docosanamine, N,N-dimethyl-]
subchronic, gavage, M, Sprague-Dawley, Body Weight Changes: decrease + Blood Chemistry: AST increase, ALT increase, Alb increase, A/G increase, ALP decrease + Necropsy: Mesentric …
  NOEL: 0.5 mg/kg-day

## O=Cc1ccc(Cl)cc1 [4-Chlorobenzaldehyde]
short-term, duration: 28 days, gavage, F, Sprague-Dawley, Clinical Observation: Salivation Tremor Soiled perigenital fur + Functional Observational Battery: Motor activity decrease + Body Weight …
  NOEL: 40 mg/kg-day
short-term, duration: 28 days, gavage, M, Sprague-Dawley, Clinical Observation: Salivation Tremor Soiled perigenital fur + Functional Observational Battery: Motor activity decrease + Body Weight …
  NOEL: 200 mg/kg-day

## CC1(C)C(C=CC(=O)OC(C(F)(F)F)C(F)(F)F)C1C(=O)OC(C#N)c1cccc(Oc2ccccc2)c1 (configuration not stated)
short-term, duration: 28 days, gavage, M/F, Deaths + Clinical Observation: Salivation + Urinalysis: Specific gravity decrease, pH decrease + Blood Chemistry: GPT increase, BUN …
  NOEL: < 5 mg/kg-day

## Nc1ccc(Oc2cccc(Oc3ccc(N)cc3)c2)cc1 [1,3-Phenylenedi(4-aminophenyl ether)]
short-term, duration: 28 days, gavage, M/F, Deaths + Clinical Observation: Piloerection Abnormal distention Lethargy Loss of hair + Body Weight Changes: Weight gain decrease + Food …
  NOEL: 10 mg/kg-day

## COCC(C)OCC(C)O (configuration not stated) [Dipropylene glycol monomethyl ether]
short-term, duration: 28 days, gavage, M/F, Sprague-Dawley, Clinical Observation: Tentative salivation + Relative Organ Weight: Liver increase + Histopathology: Liver-Centrilobular hypertrophy
  NOAEL: 200 mg/kg-day

## O=C1C=CC(=O)N1c1cccc(N2C(=O)C=CC2=O)c1 [N,N'-1,3-Phenylenedimaleimide]
[4]
  NOAEL: 15 mg/kg-day
  NOEL: < 15 mg/kg-day

## C=CC(=O)OCc1c(Br)c(Br)c(Br)c(Br)c1Br [(Pentabromophenyl)methyl acrylate]
short-term, duration: 28 days, gavage, M/F, Clinical Observation: Salivation increase, Hunchback position Staggering gait Lethargy Ptosis Emacation Flush in extremities + Urinalysis: S…
  NOEL: < 15 mg/kg-day

## COc1ccccc1[N+](=O)[O-] [1-Methoxy-2-nitrobenzene]
[5]
  NOAEL: 80 mg/kg-day
  NOEL: 80 mg/kg-day
subchronic, duration: 13 weeks, diet, M/F, Fischer 344, Deaths + Body Weight Changes: decrease + Food Consumption: decrease + Hematology: Ret increase, Hct decrease, Hgb decrease, RBC decrease, …
  NOEL: < 19.2 mg/kg-day

## O=C1CCCCCCCCCCCN1 [Azacyclotridecan-2-one]
subchronic, duration: 90 days, gavage, M/F, Sprague-Dawley, Deaths: None (There were dead animals caused by intubation error) + Blood Chemistry: K increase, TP increase, Alb increase + Histopathology…
  NOAEL: 25 mg/kg-day

## O=S(=O)(c1cc(Br)c(OCC(Br)CBr)c(Br)c1)c1cc(Br)c(OCC(Br)CBr)c(Br)c1 (configuration not stated) [1,1'-Sulfonylbis[3,5-dibromo-4-(2,3-dibromopropoxy)benzene]]
[6]
  NOAEL: 1000 mg/kg-day
  NOEL: 1000 mg/kg-day

## CCCCOCCOCCO [2-(2-Butoxyethoxy)ethanol]
chronic, duration: 91 days, drinking water, M/F, Fischer 344, Body Weight Changes: Terminal body weight decrease + Food Consumption: decrease + Water Consumption: decrease + Hematology: RBC decrease, …
  NOAEL: 250 mg/kg-day

## CC(C)(C)OOC(C)(C)CCC(C)(C)OOC(C)(C)C [2,5-Dimethyl-2,5-di-(tert-butylperoxy)hexane]
[7]
  LOAEL: 200 mg/kg-day
  LOEL: 200 mg/kg-day
  NOAEL: 40 mg/kg-day
  NOEL: 40 mg/kg-day
[8]
  LOAEL: 1000 mg/kg-day
  LOEL: 200 mg/kg-day
  NOAEL: 200 mg/kg-day
  NOEL: 40 mg/kg-day

## COc1cc(COC(=O)CCCCCCC(C)C)ccc1O [Dihydrocapsiate]
subchronic, gavage, M/F, Crj:CD, Blood Chemistry: ALT increase, Ca increase, Alb increase, TP increase + Absolute Organ Weight: Liver increase + Relative Organ Weight: Liver…
  NOEL: 300 mg/kg-day

## CC(=O)Nc1ccc(O)cc1 [Acetaminophen]
short-term, duration: 19 days, gavage, F, Wistar, Deaths + Clinical Observation: Emaciation(dead animals) Hypothermia(dead animals) Bradypnea(dead animals) Locomotor activity decrease(dead …
  NOEL: 20 mg/kg-day
short-term, duration: 19 days, gavage, M, Wistar, Deaths + Clinical Observation: Emaciation(dead animals) Hypothermia(dead animals) Bradypnea(dead animals) Locomotor activity decrease(dead …
  NOEL: 20 mg/kg-day
subchronic, duration: 13 weeks, diet, M/F, Fischer 344, Deaths + Clinical Observation: Dark yellow urine + Body Weight Changes: decrease + Absolute Organ Weight: Right testis decrease, Thymus …
  NOEL: < 76.8 mg/kg-day

## C=CCOCCCCO [4-allyloxy-1-butanol]
short-term, duration: 28 days, gavage, M/F, Deaths + Clinical Observation: nasal discharge flatulence + Body Weight Changes: body weight gain decrease + Food Consumption: decrease + …
  NOEL: 10 mg/kg-day

## CC(C)(c1ccc(O)cc1)c1cc(C(C)(C)c2ccc(O)cc2)c(O)cc1O [4,6-Bis[2-(4-hydroxyphenyl)propan-2-yl]benzene-1,3-diol]
[9]
  NOAEL: 20 mg/kg-day
  NOEL: < 5 mg/kg-day

## COC(=O)C(c1ccccc1)C1CCCCN1.Cl (configuration not stated) [Methylphenidate hydrochloride]
subchronic, duration: 13 weeks, diet, F, Fischer 344, Body Weight Changes: decrease + Food Consumption: decrease + Absolute Organ Weight: Brain increase, Liver increase + Relative Organ Weight: …
  NOEL: 18 mg/kg-day
subchronic, duration: 13 weeks, diet, M/F, Fischer 344, Body Weight Changes: decrease + Food Consumption: decrease + Absolute Organ Weight: Brain increase, Liver increase + Relative Organ Weight: …
  NOEL: 24 mg/kg-day

## COc1c(N2CCNC(C)C2)c(F)cc2c(=O)c(C(=O)O)cn(C3CC3)c12.O (configuration not stated)
chronic, duration: 182 days, gavage, M/F, Wistar, Clinical Observation: Loss of increaseper incisor + Body Weight Changes: decrease + Urinalysis: Ca increase + Hematology: SEG decrease, …
  NOAEL: 30 mg/kg-day

## CCCC[B-](c1ccccc1)(c1ccccc1)c1ccccc1.CCN(CC)c1ccc(C(=C/C=C/C(=C2C=CC(=[N+](CC)CC)C=C2)c2ccc(N(CC)CC)cc2)c2ccc(N(CC)CC)cc2)cc1
short-term, duration: 28 days, gavage, M/F, Blood Chemistry: GPT increase, Ch E decrease + Organ Weight: Kidney decrease, Adrenal decrease + Necropsy: Adrenal- Reddish brown + …
  NOEL: 30 mg/kg-day

## O=C(Cl)c1ccccc1Cl [Benzoyl chloride, 2-chloro-]
subchronic, duration: 42 days, gavage, M, CD(SD), Clinical Observation: Salivation Soft/mucous stool Soiled perianal/perigenital fur + Body Weight Changes: Weight gain decrease + Food …
  NOEL: 40 mg/kg-day

## C[C@@H](NCCc1ccc(O)cc1)[C@@H](O)c1ccc(O)cc1.Cl [Ritodrine hydrochloride]
subchronic, duration: 35 days, gavage, M/F, Sprague-Dawley, Deaths + Clinical Observation: Locomotor activity decrease, Increased respiration rate Deep respiration Prone, lateral, or supine position …
  NOEL: 32 mg/kg-day

## N#Cc1c(Cl)c(Cl)c(C#N)c(Cl)c1Cl [p-Phthalodinitrile, tetrachloro-]
[3]
  NOEL: 1000 mg/kg-day

## CNC[C@H](O)c1cccc(O)c1.Cl [(-)-Phenylephrine hydrochloride]
subchronic, duration: 12 weeks, diet, M/F, Fischer 344, Deaths + Clinical Observation: Hyperexcitable + Body Weight Changes: decrease + Histopathology: Eye-Chronic keratitis Testis-Atrophy Seminal…
  NOEL: 240 mg/kg-day

## CC(C)=CCl [2,2-Dimethylvinyl chloride]
subchronic, duration: 13 weeks, gavage, M/F, Fischer 344, Deaths + Clinical Observation: Rough hair Inactivity Perianal wetness + Body Weight Changes: decrease + Histopathology: Liver/periportal-…
  NOEL: 125 mg/kg-day

## ClC1=C(Cl)[C@]2(Cl)[C@H]3[C@H]([C@H](Cl)C(Cl)[C@@H]3Cl)[C@@]1(Cl)C2(Cl)Cl (stereo partly drawn) [trans-Nonachlor]
subchronic, diet, M/F, Sprague-Dawley, Blood Chemistry: Pi increase, A/G decrease, Thyroxine increasetake decrease, T4 increase + Absolute Organ Weight: Liver increase + Relative …
  NOEL: < 0.48 mg/kg-day

## [Cl-].[Cs+] [Caesium chloride]
subchronic, duration: 90 days, gavage, M/F, Sprague-Dawley, Deaths + Clinical Observation: Irritability Convulsion, preening Locomotor activity increase + Body Weight Changes: decrease + Food …
  NOEL: < 10 mg/kg-day

## COc1cccc(OC)c1C(=O)P(=O)(CC(C)CC(C)(C)C)C(=O)c1c(OC)cccc1OC (configuration not stated)
short-term, duration: 28 days, gavage, M/F, Blood Chemistry: CHE decrease + Absolute Organ Weight: Liver increase + Histopathology: Skin-Proliferation, epidermis, horny layer Skin-…
  NOEL: 5 mg/kg-day

## O=S(=O)(O)c1cc(Cl)cc(N=Nc2ccc3c(O)cccc3c2O)c1[O-].[Na+]
short-term, duration: 28 days, gavage, M/F, Crl:CD(SD), Deaths + Clinical Observation: Loose stool Locomotor activity increase + Body Weight Changes: decrease + Water Consumption: increase + …
  NOEL: < 40 mg/kg-day
